Source: patent publication USRE43632E1, “1,3-propane diol esters and ethers and methods for their use in drug delivery” (Scarista, Ltd., priority 1995, dated 2012)
Where two headings read alike, the source gives them in different places.

Columns and labels:
[1] = test system: normal fibroblast line, a breast cancer line and a malignant melanoma line; conditions: all cell lines: normal fibroblast, results set out in EPA-0 675 103; cited from earlier work
[2] = in vivo, po
Procedure: (§1) GLA was administered in the form of either GLA-GLA or GLA-EPA and EPA was administered in the form of GLA-EPA or EPA-EPA. The diesters were given either orally by gavage or intravenously in the form of a 20% emulsion made using 2% of oat galactolipid as an emulsifier in doses from about 0.1 to 2.0 g/kg. Animals were killed after 1, 2, 4, 8 and 24 hours and plasma, red cells and liver collected. The presence of the unmetabolised diesters was identified by high pressure liquid chromatography. The presence of fatty acids derived from the diesters and of metabolites of those fatty acids was checked by lipid extraction of the liver, plasma or red cells, by separation of that lipid fraction into triglycerides, phospholipids, cholesterol esters and free fatty acids by thin layer chromatography, by methylation of the fatty acids derived from those separated fractions and by analysis of those fatty acids using gas chromatography using methods well described in standard texts.

[3] = test system: fasted rats; experiment: Gastrointestinal ulceration in fasted rats; conditions: indomethacin 5-30 mg/kg or same amount as diester, sacrificed after 24 hours
Procedure: Doses of indomethacin known to cause gastrointestinal ulceration (5-30 mg/kg) were given to fasted rats either in the form of free indomnethacin or the same amount of indomethacin in a 1,3-propane diol diester with GLA in the other position. The animals were sacrificed after 24 hours and the whole gastrointestinal tract examined for ulceration.

[4] = test system: ASPC-1 human pancreatic cancer; experiment: ASPC-1 human pancreatic cancer transplanted subcutaneously into nude mice; type: in vivo
Procedure: As a specific example of the therapeutic efficacy of the diesters, the 1,3 GLA-EPA propane diol diester was tested in the treatment of the ASPC-1 human pancreatic -cancer transplanted subcutaneously into nude mice which because they lack thymus function are able to accept foreign transplants without rejection. 15 mice were each injected subcutaneously with 5 million ASPC-1 cells suspended in Matrigel and DMEM buffer. In all animals a tumour developed whose size could be measured using callipers and whose volume could be estimated from the linear dimensions. Tumour size in each animal was measured twice weekly for five weeks. The animals were divided into three groups. 5 animals were used as controls and received 10 g/kg corn oil per day only. 5 animals received 10 g/kg corn oil per day but in addition received two injections per week of a dose of 1.5 g/kg of the GLA-EPA diester. […] The other 5 animals instead of the corn oil received 10 g/kg/day of the GLA-EPA diester. The treatments were continued for three weeks and then the tumours were allowed to grow for a further two weeks before the animals were sacrificed and the tumours excised and weighed. The mean tumour weights were: control group, 1240±290 mg; intravenous GLA-EPA group, 820±180 mg; oral GLA-EPA group, 490±160 mg. […] Thus the diesters are biologically active ways of administering the various fatty acids. The diesters can therefore be reasonably expected to exert the many desirable effects of the fatty acids which have been noted in many publications in the literature (e.g. Horrobin D F, ed., Omega-6 Essential Fatty Acids: Pathophysiology and Roles in Clinical Medicine: Wiley-Liss, New York, 1990.Simopoulos A P et al, eds, Health Effects of Omega-3 Polyunsaturated Fatty Acids in Seafoods, Karger, Basel, 1991. Fats and Oils in Human Nutrition, World Health Organization, Rome, 1994. Unsaturated Fatty Acids: Nutritional and Physiological Significance. British Nutrition Foundation, Chapman and Hall, London, 1992).

[5] = In vivo delivery, release and metabolism of diesters after oral or intravenous administration
Procedure: as §1

CCCCC/C=C\C/C=C\C/C=C\CCCCC(=O)OCCCOC(=O)Cc1c(C)n(C(=O)c2ccc(Cl)cc2)c2ccc(OC)cc12 [indomethacin-GLA]
intracellular level after incubation (cell penetration) [1]: very substantial amounts of both indomethacin-GLA and free indomethacin

CCCCC/C=C\C/C=C\C/C=C\CCCCC(=O)OCCCOC(=O)Cc1c(C)n(C(=O)c2ccc(Cl)cc2)c2ccc(OC)cc12 [GLA-indomethacin, 1-(z,z,z-Octadeca-6,9,12-trienoyloxy)-3-(I-(4-chlorobenzoyl)-5-methoxy-2-methyl-indole-3-acetyloxy)propane]
absorption and release of active moieties [2]: absorbed following oral administration and to release their active moieties

COc1ccc2c(c1)c(CC(=O)O)c(C)n2C(=O)c1ccc(Cl)cc1 [indomethacin, reference compound]
intracellular level after incubation (cell penetration) [1]: very low | ulceration of the whole gastrointestinal tract [3]: extensive ulceration

CCCCC/C=C\C/C=C\C/C=C\CCCCC(=O)OCCCOC(=O)CCCC/C=C\C/C=C\C/C=C\CCCCC [GLA-GLA, 1,3-(di-z,z,z-Octadeca-6,9,12-trienoyloxy)propane]
absorption and release of active moieties [2]: absorbed following oral administration and to release their active moieties

CC/C=C\C/C=C\C/C=C\C/C=C\C/C=C\CCCC(=O)OCCCOC(=O)CCCC/C=C\C/C=C\C/C=C\CCCCC [GLA-EPA, 1-(z,z,z-Octadeca-6,9,12-trienoyloxy)-3-(z,z,z,z,z-eicosa-5,8,11,14,17-pentaenoyloxy)propane]
tumour growth ([4]; both oral and intravenous administration): substantially inhibited | mean tumour weight ([4]; intravenous, 1.5 g/kg two injections per week for three weeks, 20% emulsion, tumours weighed at five weeks): 820 ± 180 mg | side effects or distress in the animals ([4]; mouse, in vivo): without causing any side effects or distress | tolerability of the intravenous emulsion ([4]; nude mice, 20% emulsion with 2% oat galactolipid, 1.5 g/kg twice weekly): very well tolerated and caused no haemolysis or thrombophlebitis | in vivo release of free GLA and EPA ([5]; intravenous infusion and oral administration of the diester emulsion): rapid in vivo release of free GLA and EPA

CCCCCC=CCC=CCC=CCCCCC(=O)OCCCOC(=O)c1cccnc1 [niacin-GLA]
absorption and release of active moieties ([5]; oral administration): absorbed following oral administration and to release their active moieties
